“Also recorded” adds a separate entry of the source. Where two headings read alike, the source gives them in different places.

Series [1] deals with T1, MIF (Homo sapiens, UniProt P14174).
T1 sequence (P14174 2-115 limits assumed): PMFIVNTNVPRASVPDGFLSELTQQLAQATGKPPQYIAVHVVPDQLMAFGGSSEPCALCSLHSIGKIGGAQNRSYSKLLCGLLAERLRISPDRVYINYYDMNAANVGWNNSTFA
Put plainly: MIF dopachrome tautomerase activity inhibition. Type of series: biochemical. Also on record: 1 μL of MIF solution (800-900 ng/mL). On the procedure: MIF tautomerase activity was measured by UV-Visible recording spectrophotometry (SHIMADZU, UV 1600U). A fresh stock solution of L-dopachrome methyl ester was prepared at 2.4 mM through oxidation of L3,4-dihydroxyphenylalanine methyl ester with sodium periodate. 1 μL of MIF solution (800-900 ng/mL) and 1 μL of a DMSO solution with various concentrations of the enzymatic inhibitor were added into a plastic cuvette (10 mm, 1.5 mL) containing 0.7 mL assay buffer (1× potassium phosphate, pH 7.2). The L-dopachrome methyl ester solution (0.3 mL) was added to the assay buffer mixture.

The test system of series [2] is endotoxemia and sepsis. The following applies: intraperitoneal, 40 mg/kg; Al-Abed et al., 2005; cited from earlier work.
Series [3] relates to TNF release by LPS-treated macrophages. As to conditions: in vitro; cited from earlier work.
In series [4] the test system is TNF release by LPS-stimulated human macrophages. Put plainly: TNF release from LPS-stimulated macrophages. Type of series: cell-based. The following applies: FIG. 4. On the procedure:
(§1) TNF-α production was then measured. The data shown are mean ±SD of triplicate wells in experiments that were repeated twice.
It has been shown that the macrophage is an abundant source of MIF (Calandra et al., 1994), which is released after LPS stimulation. This led to an examination of the autocrine and paracrine activity of secreted MIF in vitro.

For series [5], the target named is T1, MIF. Put plainly: MIF glucocorticoid-regulating (proinflammatory) activity in LPS-treated macrophages, TNF-α production. The format is cell-based. Also noted: dexamethasone plus MIF (3 nM purified native MIF); host or cells: added to monocyte-derived macrophages from human peripheral blood. On the procedure: as §1
Series [6] relates to CLP sepsis. Briefly: cecal ligation and puncture (CLP) sepsis survival. Type of series: in vivo. As to conditions: mice, intraperitoneal, first injection 24 hours after CLP, further injections day 2 and 3, FIG. 6. On the procedure: FIG. 6 is a graph showing that Cyc-Oxi-II is protective even when given 24 h after the induction of sepsis.
An additional two injections were given, on day 2 and day 3. Thirteen mice were tested.

The nature of series [7]: antibacterial effect. The following applies: preliminary studies.
Series [8] can be described thus: preliminary acute toxicity screening. Type of series: in vivo. The text has this:
Design of Cyc-Oxi-11. ISO-1, the pharmacological inhibitor of MIF, neutralizes exogenous and endogenous MIF in in vitro and in vivo models. This indicates the successful application of chemical approaches to antagonize MIF biological activities. Although ISO-1 has significant anti-inflammatory activity, development of better inhibitors was desired. […] Representative structures of the novel oxime scaffold are presented in Table I, with their IC50 of inhibiting MIF dopachrome tautomerase activity.

[9] abbreviates: Table 1, left column pair, read-out: IC50 inhibition of MIF tautomerase activity.
[10] abbreviates: Table 2, additional MIF inhibitors, read-out: IC50 MIF inhibitory activity in vitro.

Regarding `O=C(O/N=C/c1ccc(O)cc1)C1CCC1`, in series [1] (setting [9]), the IC50 was determined as 12000 nM.

Take `O=C(O/N=C/c1ccc(O)cc1)C1CCCC1`: the IC50 in series [1] (setting [9]) was 4800 nM.

Consider `COC(=O)C[C@@H]1CC(c2ccc(O)cc2)=NO1` (racemic) [ISO-1, (S,R)-3-(4-hydroxyphenyl)-4,5-dihydro-5-isoxazole acetic acid methyl ester], for which the survival rate result in series [2] is given as “increased the survival rate”. In addition, in series [3], the “inhibition of TNF release” value is recorded as 60%. In the case of `CC(C)(C)OC(=O)NOC(=O)C1CCCCC1` [BKII-85], the IC50 in series [1] (setting [10]) worked out at 19500 nM.

Regarding `CC(C)(C)OC(=O)NNC(=O)C1CCCCC1` [BKII-90], the IC50 in series [1] (setting [10]) is 60000 nM. Regarding `CC(C)(C)OC(=O)NOC(=O)C1CC1` [BKII-91], the IC50 in series [1] (setting [10]) came out at 1900 nM.

For `CC(C)(C)OC(=O)NOC(=O)C1CCC1` [BKII-92], the IC50 in series [1] (setting [10]) was found to be 370 nM. On to `CC(C)(C)OC(=O)NOC(=O)C1CCCC1` [BKII-93], for which, in series [1] (setting [10]), the IC50 was determined as 700 nM. The same measure, in the same setting: to `CC(C)(C)OC(=O)NOC(=O)c1ccccc1` [BKII-98] belongs 230 nM; to `COc1ccc(C(=O)ONC(=O)OC(C)(C)C)cc1` [BKII-99], 1200 nM. `CC(C)(C)OC(=O)NOC(=O)c1c(F)c(F)c(F)c(F)c1F` [BKIII-6W]: the IC50 in series [1] (setting [10]) came to 118000 nM.

Consider `CC(C)(C)OC(=O)NOC(=O)c1ccc(OC(=O)c2ccc(O)cc2)cc1` [BKIII-6Y], for which the IC50 in series [1] (setting [10]) is 50000 nM.

In the case of `CC(C)(C)OC(=O)NOC(=O)c1ccc(F)cc1` [BKIII-8W], in series [1] (setting [10]), the IC50 worked out at 270 nM. Take `CC(C)(C)OC(=O)NOC(=O)c1ccc(Cl)cc1` [BKIII-8Y]: in series [1] (setting [10]), the IC50 stood at 870 nM.

Regarding `CC(C)(C)OC(=O)NOC(=O)c1ccc(C(F)(F)F)cc1` [BKIII-9W], in series [1] (setting [10]), the IC50 turned out to be 69000 nM. Consider `CC(C)(C)OC(=O)NOC(=O)c1ccc(I)cc1` [BKIII-9Y], for which the IC50 in series [1] (setting [10]) amounted to 1700 nM. Regarding `CC(C)(C)OC(=O)NOC(=O)c1ccc(Br)cc1` [BKIII-11Y], in series [1] (setting [10]), the IC50 worked out at 1300 nM. With `COc1ccc(C(=O)ON=Cc2ccc(O)cc2)cc1` [Compound 4], the IC50 in series [1] (read-out: IC50 of MIF dopachrome tautomerase activity) came out at 1100 nM. Regarding `COc1ccc(OC(=O)O/N=C/c2ccc(O)c(F)c2)cc1` [Compound 5, (E)-3-fluoro-4-hydroxybenzaldehyde O-4′-methoxyphenyl carbonyloxime], in series [1] (mono-fluorinated analogue versus parent), the “improvement of inhibition of dopachrome tautomerase activity over parent compound” value is 63%. `O=C(O/N=C/c1ccc(O)cc1)C1CCCCC1` [Cyc-Oxi-11, (E)-4-hydroxybenzaldehyde O-cyclohexanecarbonyloxime]: in series [4], the “inhibition of TNF release” value was “inhibits TNF release in vitro; also recorded: in a dose-dependent manner, inhibits TNF release; also recorded: inhibits MIF induction of TNF release”. Besides, the “potency versus ISO-1 in MIF tautomerase inhibition” value in series [1] (relative to ISO-1) was found to be 30 fold. Besides, the “inhibition of MIF-dependent interference with glucocorticoids” value in series [5] (LPS-stimulated human macrophages, FIG. 3) is given as “significantly inhibited; also recorded: suppresses the ability of MIF to regulate glucocorticoids”. Further, the “potency versus ISO-1 as inhibitor of MIF proinflammatory activity in vitro” value in series [5] (relative to ISO-1) came out at 30 fold. Moreover, the “deaths / protection after CLP” value in series [6] is reported as “considerably reduced the deaths caused by CLP”; in series [6] (listed as Cyc-Oxi-II), “protective”. The antibacterial effect result in series [7] is given as “negative”. Also, the “acute toxicity, intraperitoneal injection” value in series [8] (doses up to 100 mg/Kg) is given as “no evidence of toxicity”. Further, the “toxicity at high doses” value in series [8] (high doses, both in vitro and in vivo) is reported as “lacks obvious toxicity”.

Values taken from patent publication US20090318509A1, “Oxime Derivatives as Inhibitors of Macrophage Migration Inhibitory Factor” (priority 2006, published 2009).
